Assay results taken from patent publication US11215608B2, “Methods of determining cellular chemosensitivity” (Dana-Farber Cancer Institute, Inc., priority 2006, dated 2022).

How the values were obtained:
GST-BCL-2 = biological target: T1, GST-BCL-2 (Homo sapiens, UniProt P10415); assay: BIM BH3 displacement by fluorescence polarization; type: binding; conditions: 25 nM fluorescein-linked BIM BH3, 0.5 uM GST-BCL-2
T1 construct: In each case, the C-terminus transmembrane domain was truncated to maintain solubility in aqueous solution; made in house; host or cells: bacteria
Experimental: (§1) Binding assays were performed using fluorescence polarization as previously described (Letai et al., 2002). A minimum of three independent experiments were used to determine each dissociation constant.
(§2) As one test of this hypothesis, the ability of sensitizer peptides to displace tBID from antiapoptotic protein Bcl-w was examined utilizing a GST-pulldown assay. Proteins bound to glutathioneagarose beads were eluted with glutathione and analyzed by Western blot. In FIG. 3A, tBID is displaced from BC1-w by sensitizer BH3 peptides in a pattern that replicates the pattern in FIG. 1D. […] These experiments support the ability of sensitizer BH3 peptides to displace activators from the antiapoptotic binding cleft.

BAX = BAX oligomerization / activation in mitochondria of IL-3 starved FL5.12-BCL-2 cells; type: biochemical, murine; conditions: peptides 30 uM, ABT-737 10 uM, 35 minutes
Experimental: Mitochondria were isolated from wt FL5.12 cells and FL5.12-BCL-2 cells in the presence of IL-3, and from FL5.12-BCL-2 cells following 24 hours of IL-3 deprivation. […] Mitochondrial pellets were subjected to chemical crosslinking as previously described (Letai et al., 2002).
This model predicts that BCL-2 acts upstream of BAX activation by intercepting activator BH3 molecules. To test this prediction, in FIG. 6E, immunoprecipitation was performed with an antibody that recognizes only the activated form of BAX which exposes an N-terminus epitope (Desagher ct al., 1999; Hsu and You le, 1997). wt or BCL-2 expressing FL5.12 cells were exposed to IL-3 withdrawal as indicated.

CLL mitochondria = assay: Cytochrome c release from CLL mitochondria; type: biochemical, human; conditions: peptides or compounds 100 μM
Experimental: Alternatively, mitochondria were purified from freshly isolated CLL cells and cell lines by mechanical disruption followed by differential centrifugation, as previously described (Letai et al., 2002). Mitochondrial suspensions were made at 0.5 mg protein/ml, except for the case of ABT-737 and negative control enantiomer treatments, where 0.1 mg/ml was used. Release of cytochrome c was determined by a comparison of cytochrome c in the pellet and supernatant quantitated by ELISA (R&D systems).
CLL mitochondria were incubated with BH3 peptides as well as ABT-737 and negative control enantiomer (FIG. 14). […] This pattern is diagnostic of mitochondrial BCL-2 dependence. […] Since the BH3 peptides in the sensitizer panel lack the ability to directly activate BAX and BAK, these experiments also implicated the presence of an activator molecule constitutively sequestered by BCL-2 in CLL.

leukemic mitochondria = assay: Cytochrome c release from BCL-2 dependent leukemia mitochondria; type: biochemical, mouse
Experimental: (§3) Mitochondria were purified from liver and FL5.12cells as previously described (Letai et al., 2002). Mitochondria were purified from leukemia cells and 2B4 cells as previously described for FL5.12 cells. Mitochondria were incubated with treatments for 45 (mouse liver mitochondria) or 35 minutes (FL5.12, 2B4, and leukemic mitochondria). Release of cytochrome c was determined by a comparison of cytochrome c in the pellet and supernatant following treatment, quantitated by ELISA (R&D systems). When results of multiple experiments were averaged, results from solvent-only (DMSO) treatments values were subtracted from each, so that 0 release reflects that observed in solvent-only treatments.
Leukemia prone mice were generated as previously described (Letai, 2004). Mouse experimental protocols conform to the relevant regulatory standards and were approved by the Dana-Farber Cancer Institute Animal Care and Use Committee.
Previous results have described a mouse acute lymphocytic leukemia model in which c-myc is constitutively expressed and human BCL-2 is repressibly expressed. In this model, when BCL-2 transgene expression is eliminated by administration of doxycycline, the leukemic cells undergo apoptosis, resulting in rapid resolution of the leukemia (Letai, 2004). This provides an ideal in vivo model of a BCL-2 dependent cancer. It was hypothesized that dependence on BCL-2 was due to a similar mechanism to that of the IL-3 deprived FL5.12-BCL-2 cells—that is, a death signal was being initiated and carried by an activator BH3 molecule, but BCL-2 was binding it and preventing its interaction with multidomain proapoptotic proteins.
Mitochondria were isolated from leukemia cells and exposed to sensitizer BH3 peptides. Subsequently, cytochrome c release was measured. As an internal control, mitochondria were isolated from liver from the leukemic mice in parallel (FIG. 8A).

mouse liver mitochondria = assay: Cytochrome c release from mouse liver mitochondria; type: biochemical; conditions: no tBID, also at 10-fold higher concentrations
Experimental: as §3
To test if selective binding corresponded to ability of individual BH3 domains to selectively antagonize antiapoptotic function, a purified mitochondrial system was constructed in which the critical apoptosis decision making molecular machinery was reconstituted. […] The multidomain proapoptotic function was provided by the BAK which resides in mouse liver Mitochondria; mouse liver mitochondria contain no detectable BAX protein (Letai et al., 2002). The dominant antiapoptotic function was provided by one of the five different recombinant antiapoptotic proteins used in the binding assays. BH3 peptides provided the sensitizer function.
Furthermore, when the panel of sensitizer BH3 peptides was tested in the presence of the antiapoptotic protein BCL-XL, there was still no cytochrome c release, formally ruling out the possibility that the BH3 peptides were somehow directly converting antiapoptotic proteins to a proapoptotic function (FIG. 2). To induce MOMP and cytochrome c release, there appears to be an absolute requirement for an activator function, here provided by the tBID protein.

SU-DHL6 = assay: BH3 profiling, cytochrome c release from lymphoma mitochondria; type: biochemical; conditions: SU-DHL 6
Source text: (§4) BH3 profiling allows for the prediction of response of cancer cells to anti-cancer therapeutics. For the purposes of this application, therapeutics can be divided into those that target anti-apoptotic BCL-2 proteins, and conventional agents. As a model test system, four lymphoma cell lines SU-DHL4, SU-DHL6, SU-DHL8, and SU-DHL 10 were employed. To perform BH3 profiling, the ability of a panel of sensitizer peptides to induce mitochondrial outer membrane permeabilization (MOMP) in mitochondria isolated from the lymphoma cells were tested. […] MOMP was measured by quantifying cytochrome c release by ELISA.
SU-DHL4 and SU-DHL6 a “primed” phenotype, based on the sensitivity to sensitizer BH3 peptides. […] SU-DHL-10 responded poorly to both sensitizer and activator peptides, indicating the loss of the effector arm.

SU-DHL8 = assay: as above; type: biochemical; conditions: SU-DHL-8
Source text: as §4

[1] = system: SU-DHL4, SU-DHL6, SU-DHL8, SU-DHL 10; assay: Lymphoma cell line sensitivity to agents; type: cell-based; conditions: four lymphoma cell lines compared
Experimental: Only cells that are dependent on BCL-2 for survival are predicted to respond to BCL-2 antagonists like ABT-737. […] To test this, cells were treated with vincristine.

GST-MCL-1 = biological target: T2, GST-MCL-1 (Homo sapiens, UniProt Q07820); assay: BIM BH3 displacement by fluorescence polarization; type: binding; conditions: 25 nM fluorescein-linked BIM BH3, 0.1 uM GST-MCL-1
T2 construct: In each case, the C-terminus transmembrane domain was truncated to maintain solubility in aqueous solution; made in house; host or cells: bacteria (construct a gift of Tilman Oltersdorf)
Experimental: as §1, §2

[2] = system: FLAG-MCL-1-transfected 2B4 cells; assay: BH3 peptides electroporated into dexamethasone-treated FLAG-MCL-1 2B4 cells; type: cell-based, murine; conditions: peptide transfected by electroporation
Source text: Percent killing was ascertained by Annexin-V staining. […] N=3 and the error bars represent the standard deviation.

T2 sequence (Q07820 1-327): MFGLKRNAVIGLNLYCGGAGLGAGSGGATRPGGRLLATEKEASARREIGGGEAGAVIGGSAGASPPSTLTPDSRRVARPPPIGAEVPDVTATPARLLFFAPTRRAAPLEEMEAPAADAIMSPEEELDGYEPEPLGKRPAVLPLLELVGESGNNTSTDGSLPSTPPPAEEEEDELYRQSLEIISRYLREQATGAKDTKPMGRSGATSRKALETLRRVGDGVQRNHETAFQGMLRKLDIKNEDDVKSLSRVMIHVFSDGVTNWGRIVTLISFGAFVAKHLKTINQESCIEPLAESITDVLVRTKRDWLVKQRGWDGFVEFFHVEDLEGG
T1 sequence (P10415 1-218 limits assumed): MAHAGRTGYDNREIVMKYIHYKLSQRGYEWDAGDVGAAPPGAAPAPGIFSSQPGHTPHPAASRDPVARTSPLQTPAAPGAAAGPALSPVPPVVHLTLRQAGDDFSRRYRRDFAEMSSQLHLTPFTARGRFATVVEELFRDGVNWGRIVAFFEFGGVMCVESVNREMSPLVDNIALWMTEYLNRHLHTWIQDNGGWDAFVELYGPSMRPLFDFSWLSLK

Row | Molecule | displacement of BIM BH3 from BCL-2 (GST-BCL-2) | BAX oligomerization (BAX) | cytochrome c release (CLL mitochondria) | cytochrome c release (leukemic mitochondria) | cytochrome c release by peptide alone (mouse liver mitochondria) | mitochondrial sensitivity to BH3 peptide (SU-DHL6) | mitochondrial sensitivity to BH3 peptide (SU-DHL8) | cell sensitivity to the agent [1] | displacement of BIM BH3 from MCL-1 (GST-MCL-1) | percent killing by Annexin-V staining [2]
1 | CSCC[C@H](NC(=O)[C@H](CCCNC(=N)N)NC(=O)[C@H](CCCNC(=N)N)NC(=O)[C@H](CC(C)C)NC(=O)[C@H](CCC(=O)O)NC(=O)[C@H](CCCNC(=N)N)NC(=O)CNC(=O)[C@H](Cc1ccc(O)cc1)NC(=O)[C@H](CCCNC(=N)N)NC(=O)[C@H](CCC(N)=O)NC(=O)[C@H](C)NC(=O)[C@H](C)NC(=O)[C@H](Cc1c[nH]c2ccccc12)NC(=O)[C@H](CC(C)C)NC(=O)CCCCCNC(=S)Nc1ccc2c(c1)C(=O)OC21c2ccc(O)cc2Oc2cc(O)ccc21)C(=O)N[C@@H](CO)C(=O)N[C@@H](CC(=O)O)C(=O)N[C@@H](CCC(=O)O)C(=O)N[C@@H](Cc1ccccc1)C(=O)N[C@@H](CCC(=O)O)C(=O)NCC(=O)N[C@@H](CO)C(=O)N[C@@H](Cc1ccccc1)C(=O)N[C@@H](CCCCN)C(=O)NCC(=O)N[C@@H](CC(C)C)C(=O)O [BAD] | efficiently displaces BIM BH3 from BCL-2 | results in BAX oligomerization | induce cytochrome c release | capable of inducing near total cytochrome c release | none of the sensitizer BH3 peptides by themselves can induce cytochrome c release significantly above background | weaker, but definite, response |  |  |  | 
2 | CC[C@H](C)[C@H](NC(=O)[C@H](CCC(=O)O)NC(=O)[C@H](CCCNC(=N)N)NC(=O)[C@H](C)NC(=O)[C@H](Cc1c[nH]c2ccccc12)NC(=O)[C@H](CCC(N)=O)NC(=O)[C@H](CCC(=O)O)NC(=O)CCCCCNC(=S)Nc1ccc2c(c1)C(=O)OC21c2ccc(O)cc2Oc2cc(O)ccc21)C(=O)NCC(=O)N[C@@H](C)C(=O)N[C@@H](CCC(N)=O)C(=O)N[C@@H](CC(C)C)C(=O)N[C@@H](CCCNC(=N)N)C(=O)N[C@@H](CCCNC(=N)N)C(=O)N[C@@H](CCSC)C(=O)N[C@@H](C)C(=O)N[C@@H](CC(=O)O)C(=O)N[C@@H](CC(=O)O)C(=O)N[C@@H](CC(C)C)C(=O)N[C@@H](CC(N)=O)C(=O)N[C@@H](C)C(=O)O [PUMA] |  |  | induce cytochrome c release | capable of inducing near total cytochrome c release | none of the sensitizer BH3 peptides by themselves can induce cytochrome c release significantly above background | strong | limited response |  |  | 
3 | CC[C@]1(O)C[C@H]2CN(CCc3c([nH]c4ccccc34)[C@@](C(=O)OC)(c3cc4c(cc3OC)N(C=O)[C@H]3[C@@](O)(C(=O)OC)[C@H](OC(C)=O)[C@]5(CC)C=CCN6CC[C@]43[C@@H]65)C2)C1 [vincristine] |  |  |  |  |  |  |  | SU-DHL4 and SU-DHL6 were the most sensitive cell lines |  | 
4 | BH3 domain peptide of murine NOXA, AELPPEFAAQLRKIGDKVYC (SEQ ID NO: 6) [NOXA A] |  |  | do not |  | none of the sensitizer BH3 peptides by themselves can induce cytochrome c release significantly above background | weaker, but definite, response |  |  | efficiently displaces BIM from MCL-1 | significantly greater than that with BAD
